# Active and inactive are the calls of the source. The rule behind the calls is not given here.
# Columns and labels:
# [1] = in vivo; settings: SCID, mouse, tumor, iv, 10 mg/kg
# [2] = AUC (0 to t) in human MDA-MB-231 cells xenografted SCID mouse tumor at 30 mg/kg, po administered as single dose; assay type: ADME, organism-based, Neoplasm; set-up: dose 30 mg/kg, route oral
# [3] = Toxicity in human MCF12F cells assessed as induction of cell death at 10 uM after 48 hrs by trypan blue exclusion assay; assay type: cell-based
# [4] = test system: Plasma; assay: Oral bioavailability in human MDA-MB-231 cells xenografted SCID mouse plasma at 100 mg/kg administered as single dose; assay type: ADME, organism-based; settings: in vivo
# [5] = target: Baculoviral IAP repeat-containing protein 3 (Homo sapiens, UniProt Q13489); assay: Competitive inhibition of human cIAP2 BIR3 domain expressed in Escherichia coli BL21(DE3) after 2 to 3 hrs by fluorescence polarization assay
# [6] = test system: Plasma; assay: AUC (0 to t) in human MDA-MB-231 cells xenografted SCID mouse plasma at 30 mg/kg, po administered as single dose; assay type: ADME, organism-based; set-up: dose 30 mg/kg, route oral; settings: in vivo
# [7] = test system: Plasma; assay: Oral bioavailability in human MDA-MB-231 cells xenografted SCID mouse plasma at 30 mg/kg administered as single dose; assay type: ADME, organism-based; settings: in vivo
# [8] = in vivo; settings: SCID, mouse, tumor, po, 10 mg/kg
# [9] = test system: Plasma; assay: AUC (0 to t) in human MDA-MB-231 cells xenografted SCID mouse plasma at 10 mg/kg, po administered as single dose; assay type: ADME, organism-based; set-up: dose 10 mg/kg, route oral; settings: in vivo
# [10] = in vivo; settings: SCID, mouse, tumor, po, 30 mg/kg
# [11] = test system: Plasma; assay: Half life in human MDA-MB-231 cells xenografted SCID mouse plasma at 10 mg/kg, po administered as single dose; assay type: ADME, organism-based; set-up: dose 10 mg/kg, route oral; settings: in vivo
# [12] = species on record: Canis familiaris; assay: Toxicity in dog assessed as drug tolerability; assay type: organism-based, Canis lupus familiaris; settings: in vivo
# [13] = test system: SK-OV-3; assay: cells; settings: Homo sapiens, SK-OV-3, 96 h
# [14] = test system: MDA-MB-231; assay: cells; settings: Homo sapiens, MDA-MB-231, 96 h
# [15] = AUC (0 to t) in human MDA-MB-231 cells xenografted SCID mouse tumor at 10 mg/kg, iv administered as single dose; assay type: ADME, organism-based, Neoplasm; set-up: dose 10 mg/kg, route intravenous
# [16] = Tmax in human MDA-MB-231 cells xenografted SCID mouse plasma at 30 mg/kg, po administered as single dose; assay type: ADME, organism-based; set-up: dose 30 mg/kg, route oral
# [17] = Toxicity in human prostate epithelial cells assessed as induction of cell death at 10 uM after 48 hrs by trypan blue exclusion assay; assay type: cell-based
# [18] = test system: Plasma; assay: Half life in human MDA-MB-231 cells xenografted SCID mouse plasma at 10 mg/kg, iv administered as single dose; assay type: ADME, organism-based; set-up: dose 10 mg/kg, route intravenous; settings: in vivo
# [19] = in vivo; settings: SCID, mouse, tumor, po, 100 mg/kg
# [20] = Tmax in human MDA-MB-231 cells xenografted SCID mouse tumor at 100 mg/kg, po administered as single dose; assay type: ADME, organism-based, Neoplasm; set-up: dose 100 mg/kg, route oral
# [21] = test system: Plasma; assay: Half life in human MDA-MB-231 cells xenografted SCID mouse plasma at 30 mg/kg, po administered as single dose; assay type: ADME, organism-based; set-up: dose 30 mg/kg, route oral; settings: in vivo
# [22] = Inhibition of Cytochrome P450; assay type: ADME
# [23] = AUC (0 to t) in human MDA-MB-231 cells xenografted SCID mouse tumor at 100 mg/kg, po administered as single dose; assay type: ADME, organism-based, Neoplasm; set-up: dose 100 mg/kg, route oral
# [24] = test system: Plasma; assay: AUC (0 to t) in human MDA-MB-231 cells xenografted SCID mouse plasma at 10 mg/kg, iv administered as single dose; assay type: ADME, organism-based; set-up: dose 10 mg/kg, route intravenous; settings: in vivo
# [25] = test system: Plasma; assay: Oral bioavailability in human MDA-MB-231 cells xenografted SCID mouse plasma at 10 mg/kg administered as single dose; assay type: ADME, organism-based; settings: in vivo
# [26] = test system: Plasma; assay: AUC (0 to t) in human MDA-MB-231 cells xenografted SCID mouse plasma at 100 mg/kg, po administered as single dose; assay type: ADME, organism-based; set-up: dose 100 mg/kg, route oral; settings: in vivo
# [27] = test system: Mus musculus; assay: Toxicity in human MDA-MB-231 cells xenografted in SCID mouse at 200 mg/kg, po administered daily for 5 days/week for 2 to 3 weeks; settings: in vivo
# [28] = Tmax in human MDA-MB-231 cells xenografted SCID mouse tumor at 10 mg/kg, po administered as single dose; assay type: ADME, organism-based, Neoplasm; set-up: dose 10 mg/kg, route oral
# [29] = test system: Plasma; assay: Half life in human MDA-MB-231 cells xenografted SCID mouse plasma at 100 mg/kg, po administered as single dose; assay type: ADME, organism-based; set-up: dose 100 mg/kg, route oral; settings: in vivo
# [30] = Tmax in human MDA-MB-231 cells xenografted SCID mouse tumor at 30 mg/kg, po administered as single dose; assay type: ADME, organism-based, Neoplasm; set-up: dose 30 mg/kg, route oral
# [31] = Aqueous solubility of the compound; assay type: physicochemical; settings: buffer
# [32] = AUC (0 to t) in human MDA-MB-231 cells xenografted SCID mouse tumor at 10 mg/kg, po administered as single dose; assay type: ADME, organism-based, Neoplasm; set-up: dose 10 mg/kg, route oral
# [33] = Tmax in human MDA-MB-231 cells xenografted SCID mouse plasma at 10 mg/kg, po administered as single dose; assay type: ADME, organism-based; set-up: dose 10 mg/kg, route oral
# [34] = target: E3 ubiquitin-protein ligase XIAP (Homo sapiens, UniProt P98170); assay: Competitive inhibition of human XIAP BIR3 domain expressed in Escherichia coli BL21(DE3) after 2 to 3 hrs by fluorescence polarization assay
# [35] = Tmax in human MDA-MB-231 cells xenografted SCID mouse tumor at 10 mg/kg, iv administered as single dose; assay type: ADME, organism-based, Neoplasm; set-up: dose 10 mg/kg, route intravenous
# [36] = test system: Mus musculus; assay: Induction of degradation of cIAP1 in human MDA-MB-231 cells xenografted in SCID mouse at 100 mg/kg, po administered as single dose measured after 16 hrs by Western blot analysis; assay type: functional, organism-based; set-up: dose 100 mg/kg
# [37] = test system: MDA-MB-231; assay: Induction of cell death in human MDA-MB-231 cells at 1 uM by trypan blue exclusion assay; assay type: functional, cell-based; settings: TDE = time-dependent effect
# [38] = test system: MDA-MB-231; assay: Induction of cell death in human MDA-MB-231 cells incubated for 24 hrs by trypan blue exclusion assay; assay type: functional, cell-based
# [39] = test system: MDA-MB-231; assay: Antitumor activity against human MDA-MB-231 cells xenografted in SCID mouse assessed inhibition of tumor growth at 100 mg/kg, po administered daily for 5 days/week for 2 weeks; assay type: functional, organism-based; set-up: dose 100 mg/kg
# [40] = test system: Mus musculus; assay: Induction of degradation of cIAP1 in human MDA-MB-231 cells xenografted in SCID mouse at 100 mg/kg, po administered as single dose measured after 2 hrs by Western blot analysis; assay type: functional, organism-based; set-up: dose 100 mg/kg
# [41] = test system: Mus musculus; assay: Induction of PARP cleavage in human MDA-MB-231 cells xenografted in SCID mouse at 100 mg/kg, po administered as single dose measured after 2 hrs by Western blot analysis; assay type: functional, organism-based; set-up: dose 100 mg/kg
# [42] = test system: Mus musculus; assay: Induction of procaspase-8 processing in human MDA-MB-231 cells xenografted in SCID mouse at 100 mg/kg, po administered as single dose measured after 6 hrs by Western blot analysis; assay type: functional, organism-based; set-up: dose 100 mg/kg
# [43] = test system: MDA-MB-231; assay: Induction of apoptosis in human MDA-MB-231 cells assessed as activation of PARP cleavage at 1.5 uM after 12 hrs by Western blot analysis; assay type: functional, cell-based
# [44] = test system: Mus musculus; assay: Induction of PARP cleavage in human MDA-MB-231 cells xenografted in SCID mouse at 100 mg/kg, po administered as single dose measured after 6 hrs by Western blot analysis; assay type: functional, organism-based; set-up: dose 100 mg/kg
# [45] = test system: Mus musculus; assay: Induction of PARP cleavage in human MDA-MB-231 cells xenografted in SCID mouse at 100 mg/kg, po administered as single dose measured after 16 hrs by Western blot analysis; assay type: functional, organism-based; set-up: dose 100 mg/kg
# [46] = test system: MDA-MB-231; assay: Antitumor activity against human MDA-MB-231 cells xenografted in SCID mouse assessed inhibition of tumor growth at 30 mg/kg, po administered daily for 5 days/week for 2 weeks; assay type: functional, organism-based; set-up: dose 30 mg/kg
# [47] = test system: Mus musculus; assay: Induction of procaspase-8 processing in human MDA-MB-231 cells xenografted in SCID mouse at 100 mg/kg, po administered as single dose measured after 2 hrs by Western blot analysis; assay type: functional, organism-based; set-up: dose 100 mg/kg
# [48] = test system: MDA-MB-231; assay: Induction of apoptosis in human MDA-MB-231 cells assessed as activation of caspase-3 activity at 1.5 uM after 12 hrs by Western blot analysis; assay type: functional, cell-based
# [49] = test system: MDA-MB-231; assay: Antitumor activity against human MDA-MB-231 cells xenografted in SCID mouse assessed inhibition of tumor growth at 10 mg/kg, po administered daily for 5 days/week for 2 weeks; assay type: functional, organism-based; set-up: dose 10 mg/kg
# [50] = target: Baculoviral IAP repeat-containing protein 2 (Homo sapiens, UniProt Q13490)
compound,measurement,setting,value
CN[C@@H](C)C(=O)N[C@H]1CN(C(=O)CC(C)C)CC[C@H]2CC[C@@H](C(=O)NC(c3ccccc3)c3ccccc3)N2C1=O [XEVINAPANT],Cmax,[1],3600 ng/mL
same,AUC(0-t),[2],9600 ng·h/mL
same,Activity,[3],Non-toxic
same,F,[4],46%
same,IC50,[5],22.1 nM
same,Ki,[5],5.1 nM
same,AUCt,[6],4300 ng·h/mL
same,F,[7],38%
same,Cmax,[8],260 ng/mL
same,AUCt,[9],1200 ng·h/mL
same,Cmax,[10],2400 ng/mL
same,t1/2,[11],2.4 h
same,Activity,[12],Non-toxic
same,IC50,[13],142 nM
same,IC50,[14],144 nM
same,AUC(0-t),[15],8300 ng·h/mL
same,Tmax,[16],2 h
same,Activity,[17],Non-toxic
same,t1/2,[18],3 h
same,Cmax,[19],10800 ng/mL
same,Tmax,[20],2 h
same,t1/2,[21],2.3 h
same,inhibition (INH),[22],Not Active
same,AUC(0-t),[23],57300 ng·h/mL
same,AUCt,[24],3800 ng·h/mL
same,F,[25],31%
same,AUCt,[26],17400 ng·h/mL
same,Activity,[27],Non-toxic
same,Tmax,[28],1 h
same,t1/2,[29],5.4 h
same,Tmax,[30],2 h
same,solubility,[31],> 50 mg/mL
same,AUC(0-t),[32],1100 ng·h/mL
same,Tmax,[33],1 h
same,IC50,[34],225 nM
same,Ki,[34],66.4 nM
same,Tmax,[35],0.25 h
CN[C@@H](C)C(=O)N[C@H]1CN(C(=O)CC(C)C)CC[C@H]2CC[C@@H](C(=O)NC(c3ccccc3)c3ccccc3)N2C1=O,Activity,[36],Active
same,Activity,[37],tde
same,Activity,[38],Dose-dependent effect
same,TGI,[39],Active
same,Activity,[40],Active
same,Activity,[41],Active
same,Activity,[42],Active
same,Activity,[43],Active
same,Activity,[44],Active
same,Activity,[45],Active
same,TGI,[46],Active
same,Activity,[47],Active
same,Activity,[48],Active
same,TGI,[49],inactive
CN[C@@H](C)C(=O)N[C@H]1CN(C(=O)CC(C)C)CC[C@H]2CC[C@@H](C(=O)N[C@@H](c3ccccc3)c3cn(CCCCCCCCCCNC(=O)CCCCCNC(=O)CCCC[C@@H]4SC[C@@H]5NC(=O)N[C@@H]54)nn3)N2C1=O,Ki,[50],< 1 nM

# Reference: ChEMBL document CHEMBL2157893, “A potent and orally active antagonist (SM-406/AT-406) of multiple inhibitor of apoptosis proteins (IAPs) in clinical development for cancer treatment” (J Med Chem, 2011)
